# Test results from patent US20190185479A1, “BICYCLIC NITROGENATED HETEROCYCLIC COMPOUND” (MITSUBISHI TANABE PHARMA CORPORATION, priority 2016, published 2019).
# Tests used:
# hPDE4D = biological target: T1, hPDE4D (Homo sapiens, UniProt Q08499); test: PDE7 selectivity test (Ki value), Experimental Example 2: hPDE4D; assay type: biochemical; settings: Ki from IC50 by Cheng-Prusoff, read-out: PDE inhibition constant Ki, PDE4
# T1 construct: purchased SB Drug Discovery
# Protocol: (§1) hPDE1A, hPDE2A, hPDE3A, hPDE4D, hPDE5A, and hPDE8B were purchased from SB Drug Discovery. hPDE7B was isolated by the same method as [Method for preparing samples 1], and hPDE9A, hPDE10A, and hPDE11A were isolated by the same method as hPDE7B, i.e., isolated from COS-7 cells transfected with plasmids encoding each PDE. PDE6 was purified and isolated from bovine retina (bovine PDE6).
# (§2) Prior to the calculation of Ki value, Km value of each PDE against cAMP or cGMP was calculated. Each PDE diluted with an assay buffer so that it would have an appropriate enzyme activity, and six or more concentrations of cAMP or cGMP were reacted at room temperature for 60 minutes. Regarding PDE using cAMP as a substrate, PDELight (trademark) HTS cAMP phosphodiesterase Kit (Lonza) was used to measure a degradation product, 5′-AMP. Also, regarding PDE using cGMP as a substrate, […] of perchloric acid was added to the mixture to stop the reaction, and the resulting mixture was subjected to LC-MS/MS to measure the residual cGMP concentration. The amount of degraded substrate in each substrate concentration was calculated, the concentration of the added substrate was plotted on the horizontal axis, the amount of degraded substrate was plotted on the vertical axis, and Km value was calculated by non-linear regression on the basis of Michaelis-Menten equation. Km value (substrate) of each PDE was hPDE1A: 4.3 (cGMP), hPDE2A: 36 (cAMP), hPDE3A: 0.11 (cAMP), hPDE4D: 0.90 (cAMP), hPDE5A: 3.9 (cGMP), bovine PDE6:9.8 (cGMP), hPDE7B: 0.015 (cAMP), hPDE8B: 0.63 (cAMP), hPDE9A: 0.0037 (cGMP), hPDE10A: 0.051 (cAMP), and hPDE11A: 1.4 (cAMP) μmol/L, respectively.
# (§3) Next, PDE inhibition assay of a compound was carried out using each PDE. The PDE inhibition assay was basically carried out by the same enzyme reaction method as [Assay procedure 1], and the degraded amount of cAMP or cGMP was measured by the same method as [Assay procedure 2]. In the assay, a concentration approximated to Km value of each PDE against cAMP or cGMP was used as a substrate concentration. Meanwhile, regarding hPDE5A, hPDE8B, and hPDE9A, IMAP (trademark) FP Phosphodiesterase Evaluation Assay Kit (Molecular Devices) was used to measure the degradation of FAM-cAMP or FAM-cGMP by fluorescence depolarization technique.
# (§4) Each compound was evaluated at six or more concentrations with common ratio 10. Each inhibition rate was calculated according to <Method for data calculation 1>, and then each IC50 value was calculated by sigmoid regression. The resulting IC50 value was used in the following Cheng-Prusoff equation to calculate each Ki value. Ki=IC50/(1+[S]/Km), wherein [S] represents a substrate concentration used
# bovine PDE6 = biological target: T2, bovine PDE6 (Bos taurus, UniProt P11541+P23439); test: PDE7 selectivity test (Ki value), Experimental Example 2: bovine PDE6; assay type: biochemical; settings: Ki from IC50 by Cheng-Prusoff, read-out: PDE inhibition constant Ki, PDE6
# T2 construct: PDE6 was purified and isolated from bovine retina (bovine PDE6); from tissue; host or cells: bovine retina
# T2 sequence (P11541 2-856 limits assumed): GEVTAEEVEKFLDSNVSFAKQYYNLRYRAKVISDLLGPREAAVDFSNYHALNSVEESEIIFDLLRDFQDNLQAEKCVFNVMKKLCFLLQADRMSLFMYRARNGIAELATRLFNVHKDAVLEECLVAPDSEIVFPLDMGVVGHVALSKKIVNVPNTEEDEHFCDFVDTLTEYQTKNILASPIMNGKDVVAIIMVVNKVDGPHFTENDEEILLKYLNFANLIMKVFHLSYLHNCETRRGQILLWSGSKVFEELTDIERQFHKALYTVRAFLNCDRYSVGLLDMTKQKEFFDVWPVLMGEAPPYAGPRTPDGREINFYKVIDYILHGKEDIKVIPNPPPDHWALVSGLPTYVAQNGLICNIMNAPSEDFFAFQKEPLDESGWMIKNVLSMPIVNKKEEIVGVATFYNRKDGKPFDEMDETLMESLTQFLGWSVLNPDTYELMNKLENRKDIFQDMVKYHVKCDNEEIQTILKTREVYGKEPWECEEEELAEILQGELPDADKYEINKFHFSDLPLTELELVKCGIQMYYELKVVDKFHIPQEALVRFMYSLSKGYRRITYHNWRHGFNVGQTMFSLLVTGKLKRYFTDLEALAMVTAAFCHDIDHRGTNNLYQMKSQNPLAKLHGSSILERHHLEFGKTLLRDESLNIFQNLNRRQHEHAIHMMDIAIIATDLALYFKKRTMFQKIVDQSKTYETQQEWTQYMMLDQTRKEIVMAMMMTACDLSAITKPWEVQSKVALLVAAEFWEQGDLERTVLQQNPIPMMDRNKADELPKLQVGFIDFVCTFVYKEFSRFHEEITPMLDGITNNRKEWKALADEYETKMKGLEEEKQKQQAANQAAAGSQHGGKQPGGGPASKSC
# T2 sequence (P23439 2-850 limits assumed): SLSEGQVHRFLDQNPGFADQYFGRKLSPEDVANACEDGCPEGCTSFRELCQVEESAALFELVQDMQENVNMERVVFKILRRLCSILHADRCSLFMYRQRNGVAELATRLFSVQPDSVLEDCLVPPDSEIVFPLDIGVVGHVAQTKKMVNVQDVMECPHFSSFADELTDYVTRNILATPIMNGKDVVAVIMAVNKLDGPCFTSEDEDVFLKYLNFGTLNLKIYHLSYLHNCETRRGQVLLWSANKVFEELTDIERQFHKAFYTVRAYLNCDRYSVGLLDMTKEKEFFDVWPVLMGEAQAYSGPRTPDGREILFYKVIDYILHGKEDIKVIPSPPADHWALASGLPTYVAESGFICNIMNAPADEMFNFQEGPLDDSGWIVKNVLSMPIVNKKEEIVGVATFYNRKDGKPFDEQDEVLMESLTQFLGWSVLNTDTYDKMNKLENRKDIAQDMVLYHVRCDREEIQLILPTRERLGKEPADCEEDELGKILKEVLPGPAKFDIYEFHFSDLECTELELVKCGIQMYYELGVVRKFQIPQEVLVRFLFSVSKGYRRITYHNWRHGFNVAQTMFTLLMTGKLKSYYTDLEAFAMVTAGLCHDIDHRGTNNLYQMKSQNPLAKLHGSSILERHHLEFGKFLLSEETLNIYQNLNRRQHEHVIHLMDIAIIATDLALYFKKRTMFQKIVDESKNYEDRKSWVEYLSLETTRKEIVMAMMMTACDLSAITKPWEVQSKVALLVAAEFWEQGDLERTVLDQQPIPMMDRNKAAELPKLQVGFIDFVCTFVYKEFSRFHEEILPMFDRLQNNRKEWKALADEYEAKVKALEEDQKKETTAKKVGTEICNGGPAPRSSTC
# Protocol: as §1, §2, §3, §4
# T1 sequence (Q08499 whole entry): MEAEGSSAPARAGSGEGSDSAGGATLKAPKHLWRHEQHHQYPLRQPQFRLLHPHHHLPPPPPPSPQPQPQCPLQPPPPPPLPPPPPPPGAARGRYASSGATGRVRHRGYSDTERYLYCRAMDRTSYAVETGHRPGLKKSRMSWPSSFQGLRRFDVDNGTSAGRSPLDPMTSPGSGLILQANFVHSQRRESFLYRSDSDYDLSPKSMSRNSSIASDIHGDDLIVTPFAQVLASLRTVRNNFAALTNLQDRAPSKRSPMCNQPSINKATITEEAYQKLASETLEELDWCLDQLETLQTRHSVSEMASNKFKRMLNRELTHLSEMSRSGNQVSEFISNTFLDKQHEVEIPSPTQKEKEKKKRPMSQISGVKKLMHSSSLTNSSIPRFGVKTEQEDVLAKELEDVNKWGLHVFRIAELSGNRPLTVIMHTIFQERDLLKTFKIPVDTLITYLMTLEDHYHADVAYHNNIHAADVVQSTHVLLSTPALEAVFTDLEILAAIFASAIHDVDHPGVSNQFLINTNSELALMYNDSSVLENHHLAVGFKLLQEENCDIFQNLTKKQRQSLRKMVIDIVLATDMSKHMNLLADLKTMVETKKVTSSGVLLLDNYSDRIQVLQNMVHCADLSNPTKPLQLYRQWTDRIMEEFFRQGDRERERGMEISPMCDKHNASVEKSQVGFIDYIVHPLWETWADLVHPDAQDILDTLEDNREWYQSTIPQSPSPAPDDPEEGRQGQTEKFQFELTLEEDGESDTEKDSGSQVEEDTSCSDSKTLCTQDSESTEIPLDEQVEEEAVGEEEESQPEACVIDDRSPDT
SMILES,Ki (hPDE4D) [µM],Ki (bovine PDE6) [µM]
Cc1nc(N)c2nnn(C3CCCCC3)c2n1 [Example 4],0.22,> 4.9
"Nc1nccn2c(C3CCCCC3)nnc12 [Example 141, 3-cyclohexyl[1,2,4]triazolo[4,3-a]pyrazin-8-amine]",> 4.8,> 4.9
"Nc1ncnc2c1nnn2C1CCCCC1 [Example 3, 3-cyclohexyl-3H-[1,2,3]triazolo[4,5-d]pyrimidin-7-amine]",4.4,> 49

# Results, then the compound that gave them:
Ki (hPDE4D) [µM],Ki (bovine PDE6) [µM],SMILES
4.2,> 49,"CC1CCCCC1n1nnc2c(N)ncnc21 (single isomer, unassigned) [Example 191, 3-(cis-2-methylcyclohexyl)-3H-[1,2,3]triazolo[4,5-d]pyrimidin-7-amine]"
1.2,> 49,"C[C@@H]1CCC[C@H](c2nnc3c(N)nccn23)C1 [Example 204, 3-[(1S,3R)-3-methylcyclohexyl][1,2,4]triazolo[4,3-a]pyrazin-8-amine]"
